Values quoted from earlier work, collected in US12582632B2, “Inhibition of neurological injuries due to infections via administration of Butanetap and analogs thereof” (priority 2021, dated 2026).

Conditions: 3 phase 3 clinical studies, failed; cited from earlier work

Structure (SMILES): CN1CC[C@@]2(C)c3cc(OC(=O)Nc4ccccc4)ccc3N(C)[C@@H]12 [Phenserine, (−)-N-phenylcarbamoyl eseroline]
- side effects in clinical studies: high cholinomimetic side effects
